Measurements as given in US20200246268A1, “CPZEN COMPOSITIONS AND USES” (PAI Life Sciences Inc., priority 2017, published 2020).
Several values for one entry are separate records, joined by “and”; a condition that tells them apart may be missing. Identical values can stand only once.

Legend:
[1] = in vivo; cited from earlier work
[2] = assay type: physicochemical; conditions: base treatment (0.1 M NaOH, pH=12.8, 72 hours)
Description: Prior to evaluating the long-term stability of a spray-dried combination powder, multiple forced degradations on capreomycin and CPZEN-45 were performed before determining the chromatographic profile of treated materials and monitoring absorbance at 265 nm using a Shimadzu RP-HPLC unit. By this method, it was confirmed that it was possible to detect drug degradation as well as any degradants generated.
Forced degradations were performed by subjecting aqueous solutions of non-spray-dried capreomycin or CPZEN-45 at 0.1 mg/mL to multiple conditions (all at 23° C. unless noted otherwise): control (no treatment, 72 hours), acid (0.1 M HCl, pH=1.2, 72 hours), base (0.1 M NaOH, pH=12.8, 72 hours), oxidizer (3% w/v 2Na2CO3 3H2O2 (sodium percarbonate), 72 hours), 60° C. for 72 hours, or 90° C. for 30 minutes.
Capreomycin and CPZEN-45 content for forced degradation, stability, and impactor studies was measured by RP-HPLC with a Shimadzu system consisting of an SCL-10AVP system controller, two LC-10ADVP pumps, a DGU-14A degasser, SIL-10A autoinjector, and SPD-M10AVP diode array detector. […] All peaks were detected at wavelength 265 nm. Linearity for total capreomycin was obtained between 1 and 75 μg/mL (R^2=0.996) with a limit of detection (LOD) of 0.74 μg/mL. Linearity for CPZEN-45 was obtained between 0.5 and 100 μg/mL (R^2=0.996) with an LOD of 1.03 μg/mL. […]

porcine stomach mucin = assay: Mucin binding dialysis assay
Description: Mucin binding was evaluated using a dialysis assay developed previously (Huang et al., 2015). Briefly, 100 μL of capreomycin, CPZEN-45, or a 50:50 combination of both at 4 mg/mL per drug was suspended in 900 μL Dulbecco's PBS without calcium or magnesium (Lonza, Cat. #17-512F) either with or without 12.5% (wt./vol) porcine stomach mucin (Sigma-Aldrich, Cat. #M1778, type III, bound sialic acid 0.5% to 1.5%, partially purified powder). The resulting mixtures were placed in Spectra/Por dialysis bags (6- to 8-kDa molecular mass cutoff, 32-mm flat width, 20.4-mm diameter; 3.3-ml/cm volume; Spectrum Laboratories, Cat. #132655, Rancho Dominguez, Calif.), with the tube ends closed using standard dialysis bag closures. […] Dialysate samples (200 μl) were collected at 10, 60, 120, and 240 minutes and the antibiotic concentration within each dialysate was determined by HPLC UV/vis analysis. The percentage of each antibiotic detected in the dialysate was calculated relative to the theoretical total concentration based on 400 μg of antibiotic in an 11-ml total volume. […]
Colistin sulfate content was measured via mass spectrometry on an Agilent 6460 Triple Quadrupole LC/MS System with a Waters Cortecs UPLC C18 1.6 2.1×50 mm column.

[3] = Accelerated stability study: assay and related substances by HPLC; assay type: physicochemical; conditions: for CPZEN-45 assay by HPLC / Related Substances by HPLC: CPZEN-45 API
Description: Drugs were stored either individually as a free-flowing powder, as a 1:1 spray-dried formulation of capreomycin and CPZEN-45 as a free-flowing powder, or as a 1:1 spray-dried formulation in #3 hydroxypropylmethylcellulose (HPMC) capsules. All samples were deposited into 5 mL screw-top glass vials. Samples were collected at the beginning of the study, after 1 week, 1 month, 3 months, and 6 months. HPLC-based methods for detecting CPZEN-45, capreomycin, and degradation products are described in the “Methods” section below.
Capreomycin and CPZEN-45 content for forced degradation, stability, and impactor studies was measured by RP-HPLC with a Shimadzu system consisting of an SCL-10AVP system controller, two LC-10ADVP pumps, a DGU-14A degasser, SIL-10A autoinjector, and SPD-M10AVP diode array detector. […] All peaks were detected at wavelength 265 nm. Linearity for total capreomycin was obtained between 1 and 75 μg/mL (R^2=0.996) with a limit of detection (LOD) of 0.74 μg/mL. Linearity for CPZEN-45 was obtained between 0.5 and 100 μg/mL (R^2=0.996) with an LOD of 1.03 μg/mL.

[4] = 40° C./75% RH table, T = 3 MON, footnote: due to melting values after month 3 are 30° C./60% RH
[5] = 40° C./75% RH table, T = 6 MON, footnote: due to melting values after month 3 are 30° C./60% RH

Q: For CCCCc1ccc(NC(=O)C2=CCN(C)[C@@H]([C@H](O[C@@H]3O[C@H](CN)[C@@H](O)[C@H]3O)[C@H]3O[C@@H](n4ccc(=O)[nH]c4=O)[C@H](O)[C@@H]3O)C(=O)N2C)cc1 [CPZEN-45], which Oral availability [1] is on record?
A: Its Oral availability is “not orally available due to poor absorption from the gastrointestinal tract”.

Q: What about the “Loss of the original mass of intact compound” value [2] of the same compound?
A: The value was “approximately 88%”.

Q: And the “Percentage of efflux in the presence of mucin relative to samples without mucin” value (porcine stomach mucin; not told)?
A: Its value is 48%.

Q: What about the “Stability in accelerated stability studies” value [3] of the same compound?
A: The value was “highly stable”.

Q: And the “CPZEN-45 assay by HPLC” value ([3]; 25° C./60% RH, T = 0, replicates 1-3 and average ± RSD)?
A: Its value is 98.1% and 98.0% and 95.3%.

Q: What about the “Related Substances by HPLC” value ([3]; 25° C./60% RH, T = 1 MON, replicates 1-3 and average) of the same compound?
A: The value was 0.7%.

Q: And the “CPZEN-45 assay by HPLC” value ([3]; 25° C./60% RH, T = 1 MON, replicates 1-3 and average ± RSD)?
A: Its value is 100.7% and 98.0% and 99.5%.

Q: And the “Related Substances by HPLC” value ([3]; 25° C./60% RH, T = 1 WEEK, replicates 1-3 and average)?
A: The value was 0.4%.

Q: And the “CPZEN-45 assay by HPLC” value ([3]; 25° C./60% RH, T = 1 WEEK, replicates 1-3 and average ± RSD)?
A: The value was 96.2% and 95.8% and 97.1%.

Q: What about the “Related Substances by HPLC” value ([3]; 25° C./60% RH, T = 3 MON, replicates 1-3 and average) of the same compound?
A: Its value is 0.4% and 0.6%.

Q: What about the “CPZEN-45 assay by HPLC” value ([3]; 25° C./60% RH, T = 3 MON, replicates 1-3 and average ± RSD) of the same compound?
A: The value was 98.0% and 103.2%.

Q: What about the “Related Substances by HPLC” value ([3]; 25° C./60% RH, T = 6 MON, replicates 1-3 and average) of the same compound?
A: Its value is 0.8%.

Q: And the “CPZEN-45 assay by HPLC” value ([3]; 25° C./60% RH, T = 6 MON, replicates 1-3 and average ± RSD)?
A: The value was 97.2% and 98.4% and 97.1%.

Q: What about the “CPZEN-45 assay by HPLC” value [3, 4] of the same compound?
A: The value was 97.2% and 101.0% and 102.8%.

Q: What about the “Related Substances by HPLC” value [3, 4] of the same compound?
A: Its value is 0.6% and 0.8%.

Q: And the “CPZEN-45 assay by HPLC” value [3, 5]?
A: Its value is 96.5% and 98.0% and 97.5%.

Q: And the “Related Substances by HPLC” value [3, 5]?
A: Its value is 1.4% and 1.2%.

Q: What about the “CPZEN-45 assay by HPLC” value ([3]; 40° C./75% RH, T = 0, replicates 1-3 and average ± RSD) of the same compound?
A: The value was 98.1% and 98.0% and 95.3%.

Q: What about the “Related Substances by HPLC” value ([3]; 40° C./75% RH, T = 1 MON, replicates 1-3 and average) of the same compound?
A: Its value is 2.5% and 1.8% and 2.0%.

Q: What about the “CPZEN-45 assay by HPLC” value ([3]; 40° C./75% RH, T = 1 MON, replicates 1-3 and average ± RSD) of the same compound?
A: Its value is 100.3% and 96.0% and 94.4%.

Q: What about the “Related Substances by HPLC” value ([3]; 40° C./75% RH, T = 1 WEEK, replicates 1-3 and average) of the same compound?
A: The value was 0.5%.

Q: And the “CPZEN-45 assay by HPLC” value ([3]; 40° C./75% RH, T = 1 WEEK, replicates 1-3 and average ± RSD)?
A: Its value is 96.1% and 96.4% and 95.9%.

Q: With colistin sulfate as the compound, how does the “Percentage of efflux in the presence of mucin relative to samples without mucin” value (porcine stomach mucin; after 4 hours, drug alone, 12.5% porcine stomach mucin, 37° C.) read?
A: The value was 20%.
